The results in this text go back to article PMC10349806 (Nature Communications, 2023).

The target in one assay is T1, PfCRT variant D338A (Plasmodium falciparum, UniProt Q9N623, A220S/D338A/I356T/K76T/M74I/N326S/N75E/Q271E/R371I).
T1 sequence (Q9N623 1-424 M74I/N75E/K76T/A220S/Q271E/N326S/D338A/I356T/R371I): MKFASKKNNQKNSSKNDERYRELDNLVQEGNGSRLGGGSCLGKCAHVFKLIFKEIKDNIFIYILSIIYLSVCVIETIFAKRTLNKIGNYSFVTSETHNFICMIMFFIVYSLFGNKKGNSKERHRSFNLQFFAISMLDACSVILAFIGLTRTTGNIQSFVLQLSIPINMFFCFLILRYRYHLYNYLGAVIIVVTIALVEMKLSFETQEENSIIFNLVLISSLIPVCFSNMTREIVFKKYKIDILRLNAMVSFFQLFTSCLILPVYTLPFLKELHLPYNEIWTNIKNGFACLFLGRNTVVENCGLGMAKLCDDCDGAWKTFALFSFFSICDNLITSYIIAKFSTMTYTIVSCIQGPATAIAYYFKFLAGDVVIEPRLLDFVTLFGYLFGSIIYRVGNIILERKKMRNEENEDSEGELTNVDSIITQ
Put plainly: CQ uptake assay, oocytes expressing D338A. The format is cell-based. The protocol:
(§1) Site-directed mutagenesis of PfCRT^Dd2 was performed as described using the megaprimer method with overlap extension[21],[54]. The primer pairs used are listed in Supplementary Table 6. Please note that a codon-optimized and oocyte-adapted version of PfCRT^Dd2 was used[22] (Supplementary Fig. 16). The resulting DNA fragment was cloned into the SP64T expression vector and verified by sequencing.
(§2) Oocytes were obtained as described previously. Briefly, adult (>2 years old) female X. laevis frogs (NASCO) were anesthetized in a cooled solution of ethyl 3-amino benzoate methanesulfonate (0.1%, w/v), followed by a surgical removal of parts of the ovary. The ovary lobes were carefully dissected and small pieces of oocytes were incubated in Ca^2+-free ND96 buffer (96 mM NaCl, 2 mM KCl, 1 mM MgCl2 buffered with 5 mM HEPES/NaOH, pH 7.5) supplemented with collagenase D (0.1%, w/v; Roche), BSA (0.5%, w/v), and 9 mm Na2HPO4 at 18 °C for 14-16 h while gentle shaking. After incubation, the oocytes were carefully washed several times with ND96 buffer (96 mM NaCl, 2 mM KCl, 1.8 mM CaCl2, 1 mM MgCl2 buffered with 5 mM HEPES/NaOH, pH 7.5) supplemented with 100 mg l^−1 gentamycin). Defolliculated and healthy-looking stage V-VI oocytes were manually selected for RNA microinjection. The RNA was generated as following: The codon-optimized sequences of PfCRT variants were cloned into the pSP64T expression vector. After vector linearization using the restriction endonucleases BamHI or SalI (New England Biolabs), transcription was performed using the in vitro SP6 mMessage mMachine Kit (Ambion)[34]. The obtained RNA was kept at −80 °C and diluted with nuclease-free water to a concentration of 0.6 μg μl^−1. Precision-bore glass capillary tubes (3.5-inch glass capillaries; Drummond Scientific Co.) were pulled on a vertical puller (P-87 Flaming/Brown micropipette puller, Sutter Instrument Co.), graduated, and placed on a microinjector (Nanoject II Auto-Nanoliter Injector, Drummond Scientific Co.). 50 nl of nuclease-free water alone (control oocytes) or 50 nl of 0.6 μg μl^−1 RNA were injected under stereomicroscopic control. Injected oocytes were incubated for 46–72 h at 18 °C with twice-daily buffer changes before usage in experiments.
(§3) Drug uptake assays were performed as described previously[21],[22],[24],[34]. […] The direction of radio-labeled drug transport is here from the mostly acidic extracellular solution (pH 4.5 or 6.0, as indicated) into the oocyte cytosol (pH ∼ 7.2), which corresponds to the efflux of drug from the acidic digestive vacuole (pH 5.2) into the parasite cytoplasm (pH 7.2). The topology of PfCRT in the oolemma is such that both the N- and C-terminus face the extracellular milieu[3],[22]. In the parasite, the N- and C-terminus face the lumen of the digestive vacuole. CQ uptake kinetics were performed by incubating oocytes in ND96 buffer adjusted to a pH of 4.5, 5.0, 5.5, or 6.0 and supplemented with 50 nM [^3H]CQ and one of 7 different CQ concentrations (10 µM, 50 µM, 100 µM, 200 µM, 300 µM, 400 µM, 500 µM CQ). The reaction was stopped at the 60 min time point, which is in the linear uptake range[22],[34] (Supplementary Fig. 17). For determination of the amount of drug uptake for each oocyte, the reaction medium was removed and the oocytes were washed three times with 2 ml of ice-cold ND96 buffer. Each oocyte was individually transferred to a scintillation vial containing 5% sodium dodecyl sulfate (200 μl) for lysis. The radioactivity of each sample was measured using a liquid scintillation analyzer Tri-Carb 4910 TR (PerkinElmer). Oocytes that were injected with water instead of RNA were analyzed in parallel, representing the uptake of a drug by diffusion and/or endogenous permeation pathways. The resulting value represents the “background“ level of drug accumulation in oocytes (in-depth discussion in[22]). […]

Another assay has as its target T2, PfCRT variant E204A (Plasmodium falciparum, UniProt Q9N623, A220S/E204A/I356T/K76T/M74I/N326S/N75E/Q271E/R371I).
T2 sequence (Q9N623 1-424 M74I/N75E/K76T/E204A/A220S/Q271E/N326S/I356T/R371I): T1 sequence (Q9N623 1-424 M74I/N75E/K76T/A220S/Q271E/N326S/D338A/I356T/R371I) with E204A, A338D
Nature of the assay: CQ uptake assay, oocytes expressing E204A. It counts as cell-based. The protocol:
as §1, §2, §3

[1] abbreviates: D338A, 50 µM CQ, 1 h, mean ± SEM.
The mark [2] stands for this setting: pH 4.5, single replicates, Fig 1d left.
[3] abbreviates: pH 6.0, single replicates, Fig 1d left.
Setting [4] is: E204A, 50 µM CQ, 1 h, mean ± SEM.

Numbering of substitutions follows the chain as printed. Values joined by “and” are separate entries in the source; they are usually repeats but may differ in a detail not shown here. Equal entries are not always repeated.

With `CCN(CC)CCCC(C)Nc1ccnc2cc(Cl)ccc12` (stereo not drawn) [CQ, chloroquine], the results for the “Activity at pH 4.5” value on PfCRT variant D338A (setting [1]) and at PfCRT variant E204A (setting [4]) were 2.35 ± 0.19 pmol h-1 oocyte-1 and 1.43 ± 0.06 pmol h-1 oocyte-1, respectively. Further, the figures for the “Activity at pH 6.0” value at PfCRT variant D338A (setting [1]) and at PfCRT variant E204A (setting [4]) were 5.20 ± 0.52 pmol h-1 oocyte-1 and 2.98 ± 0.34 pmol h-1 oocyte-1, respectively. For the same compound, the R-value on PfCRT variant D338A (D338A, CQ transport at pH 4.5 / pH 6.0) is 0.47 ± 0.06; on PfCRT variant E204A (E204A, CQ transport at pH 4.5 / pH 6.0), 0.51 ± 0.09. Further, on PfCRT variant D338A (setting [2]), the “D338A transport activity pH 4.5” value is 2.81 pmol oocyte-1 h-1 and 2.11 pmol oocyte-1 h-1 and 2.14 pmol oocyte-1 h-1. For the same compound, the “D338A R-value” at PfCRT variant D338A (pH 4.5 vs pH 6.0, Fig 1d left) was 0.58 and 0.33 and 0.49. Also, the “D338A transport activity pH 6.0” value at PfCRT variant D338A (setting [3]) was 4.85 pmol oocyte-1 h-1 and 6.43 pmol oocyte-1 h-1 and 4.33 pmol oocyte-1 h-1. The “E204A transport activity pH 4.5” value on PfCRT variant E204A (setting [2]) is 1.57 pmol oocyte-1 h-1 and 1.35 pmol oocyte-1 h-1 and 1.36 pmol oocyte-1 h-1. Further, the “E204A R-value” on PfCRT variant E204A (pH 4.5 vs pH 6.0, Fig 1d left) was 0.72 and 0.42 and 0.38. Besides, the “E204A transport activity pH 6.0” value on PfCRT variant E204A (setting [3]) is 2.18 pmol oocyte-1 h-1 and 3.22 pmol oocyte-1 h-1 and 3.54 pmol oocyte-1 h-1.
